In patent US20200253888A1, “USE OF BIOMARKERS ASSOCIATED WITH LINE-1” (THE ARIZONA BOARD OF REGENTS ON BEHALF OF THE UNIVERSITY OF …, priority 2016, published 2020):

Legend:
[1] = tested on: L1 mRNAs (ORF-1 and ORF-2); experiment: TGF-β1-induced L1 mRNA expression in HepG2 cells (qRT-PCR); type: cell-based, human
Method: FIG. 1 is experimental results showing TGF-β1 induces the L1 mRNA expression in HepG2 cells. HepG2 were stimulated for different times by adding serum-free media with or without (untreated) 10 ng/ml TGF-β1. Total RNA was isolated, and 1 μg of RNA was subjected to cDNA synthesis. Samples were analyzed via RT-PCR using specific primers for human L1 (ORF-1 and ORF-2) and GAPDH. Expression relative to untreated cells.
(§1) Cell culture and treatments: HepG2 hepatocellular carcinoma cell line was purchased from the American Type Culture Collection (ATCC). Cells were grown in RPMI medium supplemented with 10% fetal bovine serum (FBS, Thermo Fisher Scientific, Grand Island, N.Y.) supplemented with 62.5 μg/mL penicillin and 100 μg/mL streptomycin (Thermo Fisher Scientific) in a humidified incubator at 37° C. with 5% CO2. HepG2 cells were pleated on day before treatment. Cells were between 40-50% confluent at the treatment time. […] All protein concentrations were determined using the bicinchoninic acid assay (Thermo Fisher Scientific).
RT-PCR: Total RNA was isolated from cells using the RNeasy Plus Kit (Qiagen) and 2 μg RNA was digested with TurboDNase-I (Thermo Fisher Scientific). […] The fold changes were determined by comparing the ACT value of each product normalized to GAPDH as an internal control. […]

[2] = tested on: L1 proteins (ORF1p and ORF2p); experiment: TGF-β1-mediated L1 expression in BEAS-2B lung cells with or without juglone (immunoblotting); type: cell-based; conditions: BEAS-2B cells, 10 ng/ml TGF-β1, immunoblotting
Method: In the experiments, non-malignant BEAS-2B lung cells were untreated or treated with 10 ng/ml TGF-β1 and co-treated with 1 μM juglone or ethanol and whole lyses were analyzed by immunoblotting for L1 proteins (ORF1p and ORF2p), vimentin, DNMT1 and GAPDH (loading control).

AhR = AhR knockdown by siRNA in HepG2 cells (immunoblot); type: cell-based, human; conditions: HepG2, siRNA transfection
Method: FIG. 3 is experimental results showing B[a]P induces the TG-β1 mRNA expression through of its receptor AhR in HepG2 cells. A) Cell were treated with 1.5 μM B[a]P or an equivalent DMSO concentration (0.5%) for different periods of times. B) Cells were transfected without siRNA (mock), with AhR target-specific siRNAs, or with a control siRNA (scramble), then treated with 1.5 μM B[a]P or DMSO for 48 h. Total RNA was isolated, and 1 μg of RNA was subjected to cDNA synthesis. Samples were analyzed via RT-PCR using human specific primers for TGF-μ1 and GAPDH. C) Some transfected cells were lysed and the whole cell lysates was analyzed by immunoblotting for AhR or GAPDH antibodies (loading control) to confirm target knockdown.
Immunoblotting: Total cell lysates were resolved by SDS-Tris PAGE and then electrotransferred onto polyvinylidine fluoride membranes (Thermo Fisher Scientific) in Tris-glycine buffer containing 20% methanol. Proteins were detected by immunoblotting. Where indicated, membranes were stripped of bound antibodies using 62.5 mmol/L Tris-HCl (pH 6.7), 100 mmol/L 2-mercaptoethanol, and 2% SDS for 30 minutes at 60° C. and then reprobed as described in figure legends.
(§2) RNA interference: Small interfering RNA (siRNA) duplexes sequences were chemically synthesized and annealed by Thermo Fisher Scientific. […]

L1 mRNA (ORF1 and ORF2) = experiment: B[a]P-induced L1 mRNA expression after siRNA transfection in HepG2 cells (qRT-PCR); type: cell-based, human
Method: FIG. 5 is experimental results showing B[a]P-mediated L1 mRNA expression requires TGFR1, Smad2 and smad3 in HepG2 cells. Cells were transfected without siRNA (mock), with target-specific siRNAs for Smad2, Smad3, TGFBR1, or with a control siRNA (scramble), then treated with 1.5 μM B[a]P or DMSO for 48 h. Total RNA was isolated, and 1 μg of RNA was subjected to cDNA synthesis. Samples were analyzed via RT-PCR using human specific primers for L1 (ORF1 and ORF2) and GAPDH. C) Some transfected cells were lysed and the whole cell lysates was analyzed by immunoblotting for TGFBR1, Smad2/3 or GAPDH antibodies (loading control) to confirm target knockdown.
RT-PCR: Total RNA was isolated from cells using the RNeasy Plus Kit (Qiagen) and 2 μg RNA was digested with TurboDNase-I (Thermo Fisher Scientific). A total DNAse digested RNA (1 μg) was employed for cDNA synthesis using high-capacity cDNA reverse transcription Kit (Thermo Fisher Scientific). The resulting cDNAs (50 ng) were used as templates for qRT-PCR to analyze the mRNA expression using Power SYBR® Green PCR Master Mix and primers for L1-ORF-1, L1-ORF-2, TGF-β1 and GAPDH. The fold changes were determined by comparing the ACT value of each product normalized to GAPDH as an internal control.
as §2

[3] = tested on: phospho-Smad2, E-Cadherin, N-Cadherin, vimentin; experiment: Activation of the TGF-β1 signaling pathway by B[a]P in HepG2 cells (immunoblotting); type: cell-based, human; conditions: data not shown
Method: FIG. 4 is experimental results showing B[a]P induces the activation of the TGF-β1 signaling pathway in HepG2 cells. Cells were stimulated for different periods of times by replacing cell media for supplemented fresh media containing 1.5 μM B[a]P or an equivalent DMSO concentration (0.5%). Whole cell lysates were analyzed by immunoblotting for phospho-Smad2, total Smad2, E-Cadherin, N-Cadherin, and GAPDH (loading control).
as §1
Immunoblotting: Total cell lysates were resolved by SDS-Tris PAGE and then electrotransferred onto polyvinylidine fluoride membranes (Thermo Fisher Scientific) in Tris-glycine buffer containing 20% methanol. Proteins were detected by immunoblotting. […]

L1 = conditions: HeLa, HMEM, vSMC and mK4 cell lines; previously shown (ref. 33); cited from earlier work

Compound: TGF-β1: Recombinant human TGF-β1 purchased from R&D Systems
- time of maximal peak induction of L1 mRNAs ([1]; HepG2, 10 ng/ml TGF-β1, time course 4 h-24 h): 8 h
- expression levels of L-1 mRNAs (ORF-1 and ORF-2) ([1]; HepG2, 10 ng/ml TGF-β1 in serum-free media, after 8 h to 24 h treatment, relative to untreated cells): induced an evident increase
- expression of L1 [2]: induces the expression of L1

Compound: AhR siRNA: siRNA duplex for AhR (ID#s1200), SEQ ID NO: 9 and 10 (chain 1 CGGAUGAAAUCCUGACGUATT; chain 2 UACGUCAGGAUUUCAUCAGTT; chemistry not given here)
- reduction in AhR levels compared with controls (AhR): > 90%

Compound: Smad3 siRNA: siRNA duplex for Smad3 (ID#107877), SEQ ID NO: 15 and 16 (chain 1 GGCCCAGUGCAUAUGCAAUTT; chain 2 AUUGCAUAUGCACUGGGCCTC; chemistry not given here)
- baseline L1 mRNA expression after knockdown (L1 mRNA (ORF1 and ORF2)): slight reduction

Compound: Smad2 siRNA: siRNA duplex for Smad2 (ID#115715), SEQ ID NO: 13 and 14 (chain 1 GCUUCUCUGAACAAACCAGTT; chain 2 CUGGUUUGUUCAGAGAAGCTG; chemistry not given here)
- baseline L1 mRNA expression after knockdown (L1 mRNA (ORF1 and ORF2)): slight reduction

Compound: c1ccc2c(c1)cc1ccc3cccc4ccc2c1c34 [B[a]P, Benzo[a]pyrene]
- expression of vimentin [3]: not induced
- transcriptional expression of L1 (L1): reactivates transcriptional expression of L1
